The test system of assay [1] is U-937 (hystiocytic lymphoma). The experiment in a line: 72-hour IC50 determination for non-adherent cells using MTS. It counts as cell-based, human. The procedure: (§1) Certain synthesized compounds were screened for their ability to induce death in two human cancer cell lines: U-937 (leukemic monocyte lymphoma) and HeLa (cervical cancer).
(§2) Cells were grown in media supplemented with fetal bovine serum (FBS) and antibiotics ([…]). Specifically, experiments were performed using the following cell lines and media compositions: U-937, HeLa, H460, and 786-O (RPMI-1640+10% FBS), and MCF7 (EMEM+10% FBS). Cells were incubated at 37° C. in a 5% CO2, 95% humidity atmosphere.
(§3) In a 96-well plate, compounds were pre-added as DMSO stocks in triplicate to achieve a final concentration of 1%. DMSO and cell-free wells served as the live and dead control, respectively. U-937 (5,000 cells/well) cells were distributed in 100 μL media to the compound-containing plate. After 72 hours, cell viability was assessed by adding 20 μL of a PMS/MTS solution (Cory, A. H.; Owen, T. C.; Barltrop, J. A.; Cory, J. G. Cancer Commun. 1991, 3, 207) to each well, allowing the dye to develop at 37° C. until the live control had processed MTS, and reading the absorbance at λ=490 nm. IC50 values were determined from three or more independent experiments using TableCurve (San Jose, Calif.).

The test system of assay [2] is HeLa (cervical carcinoma). As to the kind of experiment: 72-hour IC50 determination for adherent cells using sulforhodamine B (SRB). It counts as cell-based, human. The procedure: as §1, §2
(§4) Adherent cells (HeLa, H460, 786-O, and MCF7) were added into 96-well plates (5,000 cells/well for HeLa cell line; 2,000 cells/well for H460, 786-O, and MCF7 cell lines) in 100 μL media and were allowed to adhere for 2-3 hours. Compounds were solubilized in DMSO as 100× stocks, added directly to the cells (100 μL final volume), and tested over a range of concentrations in triplicate (1% DMSO final) on a half-log scale. Concentrations tested ranged from […] to 10 μM, depending on the potency of the compound. DMSO and cell-free wells served as the live and dead control, respectively. After 72 hours of continuous exposure, the plates were evaluated using the SRB colorimetric assay as described previously (Vichai, V.; Kirtikara, K. Nature Prot. 2006, 1, 1112). Briefly, media was removed from the plate, and cells were fixed by the addition of 100 μL cold 10% trichloroacetic acid in water. After incubating at 4° C. for an hour, the plates were washed in water and allowed to dry. Sulforhodamine B was added as a 0.057% solution in 1% acetic acid (100 μL), and the plates were incubated at room temperature for 30 minutes, washed in 1% acetic acid, and allowed to dry. The dye was solubilized by adding 10 mM Tris base solution (pH 10.5, 200 μL) and incubating at room temperature for 30 minutes. Plates were read at λ=510 nm. IC50 values were determined from three or more independent experiments using TableCurve (San Jose, Calif.).

Assay [3] concerns human cancer cell lines. The experiment in a line: Anticancer activity in human cancer cell lines, not tied to one cell line. It counts as cell-based. As to conditions: for anticancer activity, in words: human cancer cell lines, 72-hour exposure; for IC50: Homo sapiens, cell line not named in the sentence (U-937 and HeLa screened), read-out: IC50 (did not display any anticancer activity). The procedure:
as §1
Certain provided compounds were tested in culture against a panel of three supplementary human cancer cell lines representing three additional tumor histologies (H460, lung carcinoma; 786-O, renal carcinoma; MCF-7, breast carcinoma). As shown in Table E1-2, the ETPs retain their potency across the cell lines. In some embodiments, a provided compound is active in all cell lines. In some embodiments, a provide compound can be used to selectively target certain cells and/or cancers. […] Without the intention to be limited, Applicant notes that certain cell lines could be more sensitive to provided compounds; for example, U-937 and HeLa are slightly more sensitive to the ETPs than the other three cell lines.
as §4, §3

Setting [4] is: Homo sapiens, U-937, 72-hour exposure, MTS, error is standard deviation of the mean, n ≧ 3, read-out: U-937, 72-hour IC50 (Table E1-1).
Where [5] appears, read: Homo sapiens, HeLa, 72-hour exposure, SRB, error is standard deviation of the mean, n ≧ 3, read-out: HeLa, 72-hour IC50 (Table E1-1).
Where [6] appears, read: 72-hour exposure, MTS, error is standard deviation of the mean, n ≧ 3, read-out: U-937, 72-hour IC50 (Table E1-1).
Setting [7] is: 72-hour exposure, SRB, error is standard deviation of the mean, n ≧ 3, read-out: HeLa, 72-hour IC50 (Table E1-1).
The mark [8] stands for this setting: Homo sapiens, U-937, 72 h, read-out: U-937, 72-hour IC50 (Table E1-1).
Where [9] appears, read: Homo sapiens, HeLa, 72 h, read-out: HeLa, 72-hour IC50 (Table E1-1).

Where two headings read alike, the source gives them in different places. Some results are limits rather than exact numbers.

By IC50 is commonly meant the concentration that inhibits the measured activity by half. With `CCCC12CC34SSC(C)(C(=O)N3C1N(S(=O)(=O)c1ccccc1)c1ccccc12)N(C)C4=O` (stereo not drawn) [Compound 63, α-C3-Propyl epidithiodiketopiperazine], the IC50 in assay [1] (read-out: U-937, 72-hour IC50 (Table E1-1), 72-hour exposure, MTS, error is standard deviation of the mean, n ≧ 3) was above 1000 nM; in assay [2] (read-out: HeLa, 72-hour IC50 (Table E1-1), 72-hour exposure, SRB, error is standard deviation of the mean, n ≧ 3) it was above 1000 nM. For the same compound, the “anticancer activity, in words” value in assay [3] is “inactive”.

As for `CCC[C@]12CC34SC(=S)SC(C)(C(=O)N3C1N(S(=O)(=O)c1ccccc1)c1ccccc12)N(C)C4=O` (stereo partly drawn) [Compound 67, C3-Propyl dithiepanethiones], the IC50 in assay [1] (setting [4]) and in assay [2] (setting [5]) was above 1000 nM in each case. In assay [3], the “anticancer activity, in words” value was “inactive”.

Turning to `CN1C(=O)[C@]23C[C@]4(c5c[nH]c6ccccc56)c5ccccc5N(S(=O)(=O)c5ccccc5)[C@@H]4N2C(=O)[C@@]1(C)SS3` [Compound 62, C3-(Indol-3′-yl) epidithiodiketopiperazines], the IC50 in assay [1] (setting [6]) and in assay [2] (setting [7]) was above 1000 nM in each case. In addition, the “anticancer activity, in words” value in assay [3] is “inactive”.

Consider `CCC[C@]12C[C@@]34SC(=S)S[C@@](C)(C(=O)N3C1N(S(=O)(=O)c1ccccc1)c1ccccc12)N(C)C4=O` (stereo partly drawn) [Compound 65, C3-Propyl dithiepanethiones], for which the IC50 in assay [1] (setting [4]) and in assay [2] (setting [5]) was above 1000 nM in each case. Further, in assay [3], the “anticancer activity, in words” value is reported as “substantially lower potencies”.

`CSS[C@H]1C(=O)N2[C@H]3N(S(=O)(=O)c4ccccc4)c4ccccc4[C@@]3(c3c[nH]c4ccccc34)C[C@]2(SSC)C(=O)N1C` [Compound 46, C3-(Indol-3′-yl)bis(methyldlsulfane)]: the concentration for half-maximal inhibition (IC50) in assay [1] (setting [4]) stood at 20.4 ± 9 nM; in assay [2] (setting [5]) it was 36.6 ± 3.9 nM. For the same compound, the “anticancer activity, in words” value in assay [3] is recorded as “competent anticancer agents”.

Consider `CN1C(=O)[C@@]23C[C@]4(c5cn(C(=O)OC(C)(C)C)c6ccccc56)c5ccccc5N(S(=O)(=O)c5ccccc5)[C@@H]4N2C(=O)[C@@H]1SS3` [Compound 24, C3-(N-Boc-indol-3′-yl) epidithiodiketopiperazine], for which the IC50 is 2.8 to 14.8 nM in assay [1] (Homo sapiens, U-937, 72 h, read-out: IC50 (U-937)); 5.9 ± 1.4 nM in assay [1] (setting [8]); 75 ± 10 nM in assay [2] (setting [9]); 22 to 75 nM in assay [2] (Homo sapiens, HeLa, 72 h, read-out: IC50 (HeLa)).

On to `C[C@H]1C(=O)N2[C@@H](C[C@]3([C@]45C[C@H]6C(=O)N(C)[C@@H](C)C(=O)N6[C@H]4N(S(=O)(=O)c4ccccc4)c4ccccc45)c4ccccc4N(S(=O)(=O)c4ccccc4)[C@H]23)C(=O)N1C` [Compound 21], for which the IC50 in assay [1] (setting [6]) is above 1000 nM; in assay [2] (setting [7]), above 10000 nM.

Turning to `CN1C(=O)[C@]2(O)C[C@]3(c4c[nH]c5ccccc45)c4ccccc4N(S(=O)(=O)c4ccccc4)[C@@H]3N2C(=O)[C@H]1O` [Compound 56, C3-(Indol-3′-yl) hexacyclic Diol], the IC50 in assay [1] (setting [6]) and in assay [2] (setting [7]) was above 10000 nM throughout.

As to `CN1C(=O)[C@@]2(SCc3ccccc3)C[C@]3(c4cn(C(=O)OC(C)(C)C)c5ccccc45)c4ccccc4N(S(=O)(=O)c4ccccc4)[C@@H]3N2C(=O)[C@@H]1SCc1ccccc1` [Compound 43, C3-(N-Boc-indol-3′-yl)bis(benzylthioether)], the half-inhibitory concentration (IC50) in assay [1] (setting [4]), in assay [2] (setting [5]) and in assay [3] was above 10000 nM each time.

For the compound `CC(C)C(=O)O[C@@H]1C(=O)N2[C@H]3N(S(=O)(=O)c4ccccc4)c4ccccc4[C@@]3(c3c[nH]c4ccccc34)C[C@]2(SC(=O)C(C)C)C(=O)N1C` [Compound 50], the half-inhibitory concentration (IC50) in assay [1] (setting [6]) and in assay [2] (setting [7]) was above 1000 nM each time.

With `CN1C(=O)C23CC4(c5c[nH]c6ccccc56)c5ccccc5N(S(=O)(=O)c5ccccc5)C4N2C(=O)C1(C)SC(=S)S3` (stereo not drawn) [Compound 66, C3-(Indo-3′-v)dithiepanethiones], the half-maximal inhibitory concentration (IC50) in assay [1] (setting [6]) and in assay [2] (setting [7]) was above 1000 nM each time. Further, in assay [3], the “anticancer activity, in words” value is “inactive”.

On to `CC(=O)OC[C@@]1(OC(=O)C(C)C)C(=O)N2[C@H]3N(S(=O)(=O)c4ccccc4)c4ccccc4[C@@]3([C@]34C[C@]5(SSSC(c6ccccc6)(c6ccccc6)c6ccccc6)C(=O)N(C)[C@](COC(C)=O)(OC(=O)C(C)C)C(=O)N5[C@H]3N(S(=O)(=O)c3ccccc3)c3ccccc34)C[C@]2(SSSC(c2ccccc2)(c2ccccc2)c2ccccc2)C(=O)N1C` [Compound 19, Dimeric bis(triphenylmethanetrisulfide)], for which the IC50 in assay [1] (setting [6]) and in assay [2] (setting [7]) was above 10000 nM each time.

With `CCCC12CC34SSC(C)(C(=O)N3C1N(S(=O)(=O)c1ccccc1)c1ccccc12)N(C)C4=O` (stereo not drawn) [Compound 61, β-C3-Propyl epidithiodiketopiperazine], the IC50 in assay [1] (setting [8]) and in assay [2] (setting [9]) was above 1000 nM in each case. Besides, the “anticancer activity, in words” value in assay [3] is “substantially lower potencies”.

`CC(C)C(=O)O[C@@H]1C(=O)N2[C@H]3Nc4ccccc4[C@@]3(c3c[nH]c4ccccc34)C[C@]2(SC(=O)C(C)C)C(=O)N1C` [Compound 51]: the IC50 in assay [1] (setting [6]) is above 10000 nM; in assay [2] (setting [7]), above 1000 nM.

`CS[C@H]1C(=O)N2[C@H]3N(S(=O)(=O)c4ccccc4)c4ccccc4[C@@]3(c3c[nH]c4ccccc34)C[C@]2(SC)C(=O)N1C` [Compound 39]: the IC50 in assay [1] (setting [6]) and in assay [2] (setting [7]) was above 10000 nM in each case.

For `CN1C(=O)C23CC4(c5c[nH]c6ccccc56)c5ccccc5N(S(=O)(=O)c5ccccc5)[C@@H]4N2C(=O)[C@H]1SCS3` (stereo partly drawn) [Compound 38, C3-(Indol-3′-yl)dithioacetal], the values for the IC50 in assay [1] (setting [4]) and in assay [2] (setting [5]) were 82 ± 28 nM and 465 ± 37 nM, respectively. Moreover, the “anticancer activity, in words” value in assay [3] is given as “active”.

For `CN1C(=O)[C@]23C[C@]4(Br)c5ccccc5N(S(=O)(=O)c5ccccc5)[C@@H]4N2C(=O)[C@H]1SS3` [Compound 34, C3-Bromo epidithiodiketopiperazines], the 50% inhibitory concentration (IC50) was found to be 59 ± 23 nM in assay [1] (setting [6]) and 550 ± 33 nM in assay [2] (setting [7]). In assay [3], the “anticancer activity, in words” value was “inactive”.

For `CC(C)[Si](O[C@@H]1C(=O)N2[C@H]3Nc4ccccc4[C@@]3(c3c[nH]c4ccccc34)C[C@@]2(O)C(=O)N1C)(C(C)C)C(C)C` [Compound 58], the half-inhibitory concentration (IC50) in assay [1] (setting [6]) and in assay [2] (setting [7]) was above 10000 nM each time.

As for `COCS[C@H]1C(=O)N2[C@H]3Nc4ccccc4[C@@]3(c3c[nH]c4ccccc34)C[C@]2(SCOC)C(=O)N1C` [Compound 41, C3-(Indol-3′-yl)bis(S-MOM)ether], the IC50 in assay [1] (setting [4]), in assay [2] (setting [5]) and in assay [3] was above 10000 nM each time.

The record behind these values is patent publication US9353150B2, “Substituted pyrazino[1′,2′:1 ,5]pyrrolo[2,3-b]-indole-1,4-diones for cancer treatment” (Massachusetts Institute of Technology, priority 2012, dated 2016).
